# In PMC6843786, “Temporin-SHa and Its Analogs as Potential Candidates for the Treatment of Helicobacter pylori” (Biomolecules, 2019):
# Entries after “also recorded” stand apart in the source; their conditions may differ. Read-outs that look alike come from different tables or passages of the source. Non-standard residues stand in square brackets, D forms with d. Residues, ends and D or L forms follow the SMILES beside them.
# Legend:
# H. pylori (ATCC 43504) [1] = system: H. pylori (ATCC 43504)
# Source text: (§1) H. pylori used in this study were either the reference strain obtained from the American Type Culture Collection (ATCC 43504) or clinical strains received frozen from our collaborator Josette Raymond from Hospital Cochin, Paris. Strains were obtained from patients who underwent a gastroendoscopy performed for various gastro-intestinal disorders according to the recommendations of Haute Autorité de Santé (HAS). During the endoscopy, biopsy samples were taken from antrum and corpus. Samples were then crushed, and the material was used for bacterial culture and molecular methods. An antibiogram was performed and strains were then frozen at -80 °C in a broth with 10% glycerol. Bacteria were cultured as previously described. Briefly, H. pylori (ATCC 43504) was cultured in brain heart infusion (BHI) and incubated at 37 °C for 16 h in microaerophilic condition in BD GasPak EZ using BD GasPak EZ CampyPak container system sachets (BD Biosciences, Le Pont-de-Claix, France). For clinical strains, a sample from the frozen bacteria was streaked on Blood Agar (Base) (Sigma-Aldrich, Illkirch-Graffenstaden, France) supplemented with 5% horse defibrinated blood (Fisher Scientific, Les Ulis, France) and 2% isovitale-X (Fisher Scientific, Illkirch-Graffenstaden, France). The petri dishes were then incubated at 37 °C for 4–7 days in microaerophilic condition. Then, a colony is transferred to 3 mL Mueller Hinton (MH) broth supplemented with 10% fetal bovine serum (FBS) and 2% isovitale-X. The cultures were then incubated for 4–7 days until the bacteria grow before further experiments.
# (§2) Briefly, after the growth of H. pylori in liquid culture the optical density (OD) of the bacterial suspensions were read at 600 nm and adjusted to one. Stock solutions of the peptides at 1 mM were prepared in sterile water. Bacteria were diluted in medium to reach bacterial density around 10^5 bacteria/mL. One-hundred microliters per well of bacterial suspension were then added into sterile polypropylene 96-well microplates (Greiner BioOne, Paris, France) and exposed to increasing concentrations of peptides (from zero to 100 µM, 1:2 serial dilution). […] Plates were incubated at 37 °C for 24 h for H. pylori (ATCC 43504) and for 4–7 days for the clinical strains. H. pylori was tested in microaerophilic conditions generated using micro-anaerobic BD GasPak system. At the end of the incubation, OD600nm was measured using microplate reader (Synergy Mx, Biotek, Colmar, France). The MIC was defined as the lowest concentration of drug that inhibited visible growth of the organism. Experiments were conducted in independent triplicate (n = 3).
# [2] = system: clinical strains of H. pylori; conditions: for MIC: MH + 10% FBS + 2% isovitale-X
# Source text: as §1, §2
# H. pylori (ATCC 43504) [3] = system: H. pylori (ATCC 43504); remark: listed apart in the source
# Procedure: as §2
# (§3) It is also rich with mucus to protect it from the aggressive acidity. For this reason, the impact of mucins and pepsin on the activity of the peptides was investigated. The impact of the gastric mucins on peptide activity was evaluated using a combination of commercial porcine stomach mucins MUC2 and MUC3 (Sigma–Aldrich) at a final concentration of 1 mg/mL sterilized using 0.2 µm filter. This concentration was used based on the estimated concentration of mucins present in the mucus in vivo [27]. The effect of mucins on peptides activity was evaluated by MIC and by time killing assay as explained below. The resistance of the peptides to pepsin was tested as previously described with some changes. […] This concentration was used since it corresponds the pepsin concentration in the stomach (0.5–1 mg/mL).
# H. pylori (ATCC 43504) [4] = test: MIC after digestion by pepsin (resistance to pepsin)
# Procedure: as §2, §3
smiles,measurement,setting,value
"CC[C@H](C)[C@H](NC(=O)CNC(=O)[C@H](CO)NC(=O)[C@H](CC(C)C)NC(=O)[C@@H](N)Cc1ccccc1)C(=O)N[C@H](C(=O)NCC(=O)N[C@@H](CCSC)C(=O)N[C@@H](CC(C)C)C(=O)N[C@H](C)C(=O)N[C@@H](CCCCN)C(=O)N[C@@H](CC(C)C)C(=O)N[C@@H](Cc1ccccc1)C(N)=O)C(C)C [NST1, H-Phe^1-Leu^2-Ser^3-Gly^4-Ile^5-Val^6-Gly^7-Met^8-Leu^9-D-Ala^10-Lys^11-Leu^12-Phe^13-NH2] (H-FLSGIVGML[dA]KLF-NH2)",MIC on H. pylori (ATCC 43504),"H. pylori (ATCC 43504) [1]; MH medium, 24 h, microaerophilic",1.5 µM
same,MIC on H. pylori (ATCC 43504) in MH supplemented with 10% FBS,H. pylori (ATCC 43504) [1]; MH supplemented with 10% FBS,6.25 µM
same,MIC values against resistant clinical strains (span over all strains),"[2]; all resistant clinical strains, MH + 10% FBS",6.25 to 12.5 µM
same,MIC,"[2]; clinical strain BM18, resistance Clari/Metro",12.5 µM
same,MIC,"[2]; clinical strain EM68, resistance Clari/Metro",12.5 µM
same,MIC,"[2]; clinical strain LN18, resistance Clari",6.25 µM
same,MIC,"[2]; clinical strain MF76, resistance Clari/Metro",12.5 µM
same,MIC,"[2]; clinical strain MP78, resistance Clari/Metro",12.5 µM
same,MIC,"[2]; clinical strain MS67, resistance Clari/Metro",12.5 µM
same,MIC,"[2]; clinical strain NM44, resistance Clari/Metro",6.25 µM
same,increase of MIC in the presence of mucins,H. pylori (ATCC 43504) [3]; MUC2 and MUC3 at 1 mg/mL versus no mucins,two
same,MIC in the Presence of mucins,H. pylori (ATCC 43504) [3]; porcine gastric mucins MUC2 and MUC3 at 1 mg/mL,3.12 µM
same,MIC after Digestion by Pepsin,H. pylori (ATCC 43504) [4]; 4 h at 37 °C with pepsin 1 mg/mL in HCl pH 2,25 µM
same,resistance to pepsin (in words),"H. pylori (ATCC 43504) [4]; 4 h at 37 °C with pepsin 1 mg/mL, HCl pH 2",partial resistance towards pepsin; also recorded: partial resistance to the digestion by pepsin
